According to ChEMBL document CHEMBL5537147, “Development of membrane-targeting TPP+-chloramphenicol conjugates to combat methicillin-resistant staphylococcus aureus (MRSA) infections” (Eur J Med Chem, 2024):
Calls of active or inactive are those of the source. The calls are words filed in the database; no cut-off is given here.

Columns and labels:
[1] = system: Staphylococcus aureus; test: Antibacterial activity against methicillin-resistant Staphylococcus aureus 330041 assessed as inhibition of bacterial growth incubated for 16 to 18 hrs by CLSI based two-fold serial dilution method; type: functional; conditions: time 16-18 hrs
[2] = system: Staphylococcus aureus; test: Antibacterial activity against methicillin-resistant Staphylococcus aureus 3390 assessed as inhibition of bacterial growth incubated for 16 to 18 hrs by CLSI based two-fold serial dilution method; type: functional; conditions: time 16-18 hrs
[3] = system: Staphylococcus aureus; test: Antibacterial activity against methicillin-resistant Staphylococcus aureus 3392 assessed as inhibition of bacterial growth incubated for 16 to 18 hrs by CLSI based two-fold serial dilution method; type: functional; conditions: time 16-18 hrs
[4] = system: Staphylococcus aureus; test: Antibacterial activity against methicillin-resistant Staphylococcus aureus USA300 assessed as inhibition of bacterial growth incubated for 16 to 18 hrs by CLSI based two-fold serial dilution method; type: functional; conditions: time 16-18 hrs
[5] = system: Acinetobacter baumannii; test: Antibacterial activity against Acinetobacter baumannii 1309 assessed as inhibition of bacterial growth incubated for 16 to 18 hrs by CLSI based two-fold serial dilution method; type: functional; conditions: time 16-18 hrs
[6] = system: Acinetobacter baumannii; test: Antibacterial activity against Acinetobacter baumannii 1310 assessed as inhibition of bacterial growth incubated for 16 to 18 hrs by CLSI based two-fold serial dilution method; type: functional; conditions: time 16-18 hrs
[7] = system: Pseudomonas aeruginosa; test: Antibacterial activity against Pseudomonas aeruginosa 408 assessed as inhibition of bacterial growth incubated for 16 to 18 hrs by CLSI based two-fold serial dilution method; type: functional; conditions: time 16-18 hrs
[8] = system: Pseudomonas aeruginosa; test: Antibacterial activity against Pseudomonas aeruginosa 535 assessed as inhibition of bacterial growth incubated for 16 to 18 hrs by CLSI based two-fold serial dilution method; type: functional; conditions: time 16-18 hrs
[9] = Cytotoxicity against human L02 cells assessed as inhibition of cell growth incubated for 24 hrs by MTT assay; type: toxicity, cell-based
[10] = system: Staphylococcus aureus; test: Antibacterial activity against methicillin-resistant Staphylococcus aureus USA300 infected in ICR mouse assessed as reduction in bacterial load in infected thigh at 10 mg/kg, sc pre-infected with bacteria for 2 hrs followed by compound administration as dual dose and measured after 3 days; type: functional, organism-based; conditions: time 3.0 day
[11] = Toxicity in ICR mouse infected with methicillin-resistant Staphylococcus aureus USA300 assessed as reduction in body weight at 20 mg/kg, sc administered as dual dose and measured after 3 days; type: organism-based; conditions: in vivo, 72 h, time 3 day

| SMILES | MIC [1] [µg/mL] | MIC [2] [µg/mL] | MIC [3] [µg/mL] | MIC [4] [µg/mL] | MIC [5] [µg/mL] | MIC [6] [µg/mL] | MIC [7] [µg/mL] | MIC [8] [µg/mL] | IC50 at 24 h [9] [µg/mL] | Activity [10] | Activity [11] |
| --- | --- | --- | --- | --- | --- | --- | --- | --- | --- | --- | --- |
| O=C(N[C@H](CO)[C@H](O)c1ccc([N+](=O)[O-])cc1)C(Cl)Cl [CHLORAMPHENICOL] | > 64 | > 64 | > 64 | > 64 | > 64 | > 64 | > 64 | > 64 | > 64 | inactive | Non-Toxic |
| O=C(O)CCCC[P+](c1ccccc1)(c1ccccc1)c1ccccc1.[Br-] | > 64 | > 64 | > 64 | > 64 | > 64 | > 64 | > 64 | > 64 | > 64 |  |  |
| O=C(O)CC[P+](c1ccccc1)(c1ccccc1)c1ccccc1.[Br-] | > 64 | > 64 | > 64 | > 64 | > 64 | > 64 | > 64 | > 64 | > 64 |  |  |
| Br.O=C(COCCOCCOCC[P+](c1ccc(F)cc1)(c1ccc(F)cc1)c1ccc(F)cc1)OC[C@@H](NC(=O)C(Cl)Cl)[C@@H](O)c1ccc([N+](=O)[O-])cc1 | 8 | 8 | 8 | 8 | > 64 | > 64 | > 64 | > 64 | > 64 |  |  |
| O=C(O)CCCCC[P+](c1ccccc1)(c1ccccc1)c1ccccc1.[Br-] | > 64 | > 64 | > 64 | > 64 | > 64 | > 64 | > 64 | > 64 | > 64 |  |  |
| O=C(O)CCCCCCC[P+](c1ccccc1)(c1ccccc1)c1ccccc1.[Br-] | > 64 | > 64 | > 64 | > 64 | > 64 | > 64 | > 64 | > 64 | > 64 |  |  |
| Br.COc1ccc([P+](CCCCCCCCCC(=O)OC[C@H](NC(=O)C(Cl)Cl)[C@H](O)c2ccc([N+](=O)[O-])cc2)(c2ccc(OC)cc2)c2ccc(OC)cc2)cc1 | 1 | 2 | 2 | 2 | > 64 | > 64 | > 64 | > 64 | 23.5 |  |  |
| O=C(O)CCC[P+](c1ccccc1)(c1ccccc1)c1ccccc1.[Br-] | > 64 | > 64 | > 64 | > 64 | > 64 | > 64 | > 64 | > 64 | > 64 |  |  |
| O=C(O)CCCCCCCCC[P+](c1cccc(F)c1)(c1cccc(F)c1)c1cccc(F)c1.[Br-] | > 64 | > 64 | > 64 | > 64 | > 64 | > 64 | > 64 | > 64 | > 64 |  |  |
| Br.COc1cccc([P+](CCCCCCCCCC(=O)OC[C@H](NC(=O)C(Cl)Cl)[C@H](O)c2ccc([N+](=O)[O-])cc2)(c2cccc(OC)c2)c2cccc(OC)c2)c1 | 1 | 2 | 1 | 1 | > 64 | > 64 | 4 | 16 | 21.7 |  |  |
| Br.O=C(CCC[P+](c1ccccc1)(c1ccccc1)c1ccccc1)OC[C@H](NC(=O)C(Cl)Cl)[C@H](O)c1ccc([N+](=O)[O-])cc1 | 32 | 32 | 32 | 16 | > 64 | > 64 | > 64 | > 64 | > 64 |  |  |
| O=C(O)CCCCCCCCC[P+](c1ccccc1)(c1ccccc1)c1ccccc1.[Br-] | > 64 | > 64 | > 64 | > 64 | > 64 | > 64 | > 64 | > 64 | > 64 |  |  |
| O=C(O)CCCCCCCCC[P+](c1ccc(F)cc1)(c1ccc(F)cc1)c1ccc(F)cc1.[Br-] | > 64 | > 64 | > 64 | > 64 | > 64 | > 64 | > 64 | > 64 | > 64 |  |  |
| Br.Cc1ccc([P+](CCCCCCCCCC(=O)OC[C@H](NC(=O)C(Cl)Cl)[C@H](O)c2ccc([N+](=O)[O-])cc2)(c2ccc(C)cc2)c2ccc(C)cc2)cc1 | 0.5 | 0.5 | 0.5 | 0.5 | > 64 | > 64 | > 64 | > 64 | 14.7 |  |  |
| Br.O=C(CCCCC[P+](c1ccccc1)(c1ccccc1)c1ccccc1)OC[C@H](NC(=O)C(Cl)Cl)[C@H](O)c1ccc([N+](=O)[O-])cc1 | 16 | 16 | 8 | 8 | > 64 | > 64 | > 64 | > 64 | > 64 |  |  |
| Br.O=C(CCCCCCCCC[P+](c1ccc(Cl)cc1)(c1ccc(Cl)cc1)c1ccc(Cl)cc1)OC[C@H](NC(=O)C(Cl)Cl)[C@H](O)c1ccc([N+](=O)[O-])cc1 | 0.5 | 0.5 | 0.5 | 0.5 | > 64 | > 64 | > 64 | > 64 | 16.4 |  |  |
| O=C(O)CCCCCCCCC[P+](c1ccc(C(F)(F)F)cc1)(c1ccc(C(F)(F)F)cc1)c1ccc(C(F)(F)F)cc1.[Br-] | > 64 | > 64 | > 64 | > 64 | > 64 | > 64 | > 64 | > 64 | > 64 |  |  |
| O=C(O)CCCCCn1cc(C[P+](c2ccc(F)cc2)(c2ccc(F)cc2)c2ccc(F)cc2)nn1.[Br-] | > 64 | > 64 | > 64 | > 64 | > 64 | > 64 | > 64 | > 64 | > 64 |  |  |
| CN[C@H](CC(C)C)C(=O)N[C@H]1C(=O)N[C@@H](CC(N)=O)C(=O)N[C@H]2C(=O)N[C@H]3C(=O)N[C@H](C(=O)N[C@H](C(=O)O)c4cc(O)cc(O)c4-c4cc3ccc4O)[C@H](O)c3ccc(c(Cl)c3)Oc3cc2cc(c3O[C@@H]2O[C@H](CO)[C@@H](O)[C@H](O)[C@H]2O[C@H]2C[C@](C)(N)[C@H](O)[C@H](C)O2)Oc2ccc(cc2Cl)[C@H]1O [VANCOMYCIN] |  |  |  |  | > 64 | > 64 | > 64 | > 64 | > 64 |  | Non-Toxic |
| COc1cccc([P+](CCCCCCCCCC(=O)O)(c2cccc(OC)c2)c2cccc(OC)c2)c1.[Br-] | 32 | 32 | 16 | 32 | 64 | > 64 | 64 | > 64 | 15.4 |  |  |
| CN(C)c1ccc([P+](CCCCCCCCCC(=O)O)(c2ccc(N(C)C)cc2)c2ccc(N(C)C)cc2)cc1.[Br-] | 8 | 8 | 16 | 4 | 32 | 32 | 16 | 32 | 2.1 |  |  |
| Br.O=C(CCCCCCCCC[P+](c1ccccc1)(c1ccccc1)c1ccccc1)O[C@H](c1ccc([N+](=O)[O-])cc1)[C@H](CO)NC(=O)C(Cl)Cl | 1 | 1 | 2 | 1 | > 64 | > 64 | > 64 | > 64 | < 32 |  |  |
| Br.O=C(CCCCCCCCC[P+](c1ccc(C(F)(F)F)cc1)(c1ccc(C(F)(F)F)cc1)c1ccc(C(F)(F)F)cc1)OC[C@H](NC(=O)C(Cl)Cl)[C@H](O)c1ccc([N+](=O)[O-])cc1 | 1 | 1 | 1 | 1 | > 64 | > 64 | > 64 | > 64 | > 32 |  |  |
| Br.CN(C)c1ccc([P+](CCCCCCCCCC(=O)OC[C@H](NC(=O)C(Cl)Cl)[C@H](O)c2ccc([N+](=O)[O-])cc2)(c2ccc(N(C)C)cc2)c2ccc(N(C)C)cc2)cc1 | 1 | 1 | 1 | 1 | 16 | 32 | 4 | 16 | 12.4 |  |  |
| Br.O=C(CCCCCCC[P+](c1ccccc1)(c1ccccc1)c1ccccc1)OC[C@H](NC(=O)C(Cl)Cl)[C@H](O)c1ccc([N+](=O)[O-])cc1 | 2 | 2 | 2 | 2 | > 64 | > 64 | > 64 | > 64 | > 64 |  |  |
